Measured values published in ChEMBL document CHEMBL4270481, “ALK5 kinase inhibitory activity and synthesis of 2,3,4-substituted 5,5-dimethyl-5,6-dihydro-4H-pyrrolo[1,2-b]pyrazoles” (Eur J Med Chem, 2017).
The source made the active and inactive calls. The calls are words filed in the database; no cut-off is given here.

Key:
[1] = target: Tyrosine-protein kinase JAK2 (Homo sapiens) (UniProt O60674); assay: Inhibition of JAK2 (unknown origin) assessed as residual enzyme activity at 1 uM relative to untreated control
[2] = target: Serine/threonine-protein kinase PLK1 (Homo sapiens) (UniProt P53350); assay: Inhibition of PLK1 (unknown origin) assessed as residual enzyme activity at 1 uM relative to untreated control
[3] = target: T1, TGF-beta receptor type-1 (Homo sapiens) (UniProt P36897); conditions: HeLa, at 1 µM
T1 sequence (whole entry): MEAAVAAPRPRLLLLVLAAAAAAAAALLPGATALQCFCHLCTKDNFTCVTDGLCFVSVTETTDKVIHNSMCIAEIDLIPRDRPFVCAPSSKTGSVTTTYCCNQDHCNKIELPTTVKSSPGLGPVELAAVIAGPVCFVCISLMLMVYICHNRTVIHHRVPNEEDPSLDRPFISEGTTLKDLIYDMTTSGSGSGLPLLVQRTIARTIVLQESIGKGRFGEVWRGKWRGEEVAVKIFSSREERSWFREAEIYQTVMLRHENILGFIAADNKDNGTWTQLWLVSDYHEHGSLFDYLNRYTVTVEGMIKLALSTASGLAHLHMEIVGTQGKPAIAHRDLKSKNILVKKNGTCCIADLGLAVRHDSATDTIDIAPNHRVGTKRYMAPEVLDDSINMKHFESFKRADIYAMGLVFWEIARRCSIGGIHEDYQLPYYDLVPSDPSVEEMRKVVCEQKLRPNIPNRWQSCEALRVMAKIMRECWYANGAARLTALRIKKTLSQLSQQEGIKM
Description: Inhibition of ALK5 in serum starved human HeLa cells assessed as reduction in TGF-beta-induced SMAD2/3 nuclear transaction at 1 uM pre-incubated for 30 mins before TGF-beta stimulation for 30 mins by immunofluorescence analysis

[4] = target: Serine/threonine-protein kinase N2 (Homo sapiens) (UniProt Q16513); assay: Inhibition of PRK2 (unknown origin) assessed as residual enzyme activity at 1 uM relative to untreated control
[5] = target: Serine/threonine-protein kinase Sgk1 (Homo sapiens) (UniProt O00141); assay: Inhibition of SGK1 (unknown origin) assessed as residual enzyme activity at 1 uM relative to untreated control
[6] = target: Tyrosine-protein kinase BTK (Homo sapiens) (UniProt Q06187); assay: Inhibition of BTK (unknown origin) assessed as residual enzyme activity at 1 uM relative to untreated control
[7] = target: Serine/threonine-protein kinase PAK 4 (Homo sapiens) (UniProt O96013); assay: Inhibition of PAK4 (unknown origin) assessed as residual enzyme activity at 1 uM relative to untreated control
Homo sapiens = organism: Homo sapiens; assay: Inhibition of PKA (unknown origin) assessed as residual enzyme activity at 1 uM relative to untreated control
[8] = target: Mitogen-activated protein kinase 8 (Homo sapiens) (UniProt P45983); assay: Inhibition of JNK1 (unknown origin) assessed as residual enzyme activity at 1 uM relative to untreated control
[9] = target: Interleukin-1 receptor-associated kinase 4 (Homo sapiens) (UniProt Q9NWZ3); assay: Inhibition of IRAK4 (unknown origin) assessed as residual enzyme activity at 1 uM relative to untreated control
[10] = target: Vascular endothelial growth factor receptor (Homo sapiens) (UniProt P17948+P35916+P35968); assay: Inhibition of VEGFR (unknown origin) assessed as residual enzyme activity at 1 uM relative to untreated control; type: protein assay
[11] = target: Mitogen-activated protein kinase kinase kinase 7 (Homo sapiens) (UniProt O43318); assay: Inhibition of TAK1 (unknown origin) assessed as residual enzyme activity at 1 uM relative to untreated control
[12] = target: Eukaryotic elongation factor 2 kinase (Homo sapiens) (UniProt O00418); assay: Inhibition of EF2K (unknown origin) assessed as residual enzyme activity at 1 uM relative to untreated control
[13] = target: Ribosomal protein S6 kinase alpha-5 (Homo sapiens) (UniProt O75582); assay: Inhibition of MSK1 (unknown origin) assessed as residual enzyme activity at 1 uM relative to untreated control
[14] = target: 3-phosphoinositide-dependent protein kinase 1 (Homo sapiens) (UniProt O15530); assay: Inhibition of PDK1 (unknown origin) assessed as residual enzyme activity at 1 uM relative to untreated control
K562 = assay: Cytotoxicity against human K562 cells assessed as decrease in cell proliferation after 72 hrs by calcein AM staining-based assay; type: functional; conditions: K562, 72 h
[15] = target: Serine/threonine-protein kinase STK11 (Homo sapiens) (UniProt Q15831); assay: Inhibition of LKB1 (unknown origin) assessed as residual enzyme activity at 1 uM relative to untreated control
[16] = target: Serine/threonine-protein kinase TBK1 (Homo sapiens) (UniProt Q9UHD2); assay: Inhibition of TBK1 (unknown origin) assessed as residual enzyme activity at 1 uM relative to untreated control
[17] = target: Ribosomal protein S6 kinase alpha-1 (Homo sapiens) (UniProt Q15418); assay: Inhibition of RSK1 (unknown origin) assessed as residual enzyme activity at 1 uM relative to untreated control
[18] = target: Serine/threonine-protein kinase 3 (Homo sapiens) (UniProt Q13188); assay: Inhibition of MST2 (unknown origin) assessed as residual enzyme activity at 1 uM relative to untreated control
[19] = target: Ribosomal protein S6 kinase beta-1 (Homo sapiens) (UniProt P23443); assay: Inhibition of S6K1 (unknown origin) assessed as residual enzyme activity at 1 uM relative to untreated control
[20] = target: Serine/threonine-protein kinase Chk2 (Homo sapiens) (UniProt O96017); assay: Inhibition of CHK2 (unknown origin) assessed as residual enzyme activity at 1 uM relative to untreated control
[21] = target: Calcium/calmodulin-dependent protein kinase kinase 2 (Homo sapiens) (UniProt Q96RR4); assay: Inhibition of CAMKKbeta (unknown origin) assessed as residual enzyme activity at 1 uM relative to untreated control
[22] = target: Receptor tyrosine-protein kinase erbB-4 (Homo sapiens) (UniProt Q15303); assay: Inhibition of HER4 (unknown origin) assessed as residual enzyme activity at 1 uM relative to untreated control
[23] = target: SRSF protein kinase 1 (Homo sapiens) (UniProt Q96SB4); assay: Inhibition of SRPK1 (unknown origin) assessed as residual enzyme activity at 1 uM relative to untreated control
[24] = target: Tyrosine-protein kinase SYK (Homo sapiens) (UniProt P43405); assay: Inhibition of SYK (unknown origin) assessed as residual enzyme activity at 1 uM relative to untreated control
[25] = target: Insulin-like growth factor 1 receptor (Homo sapiens) (UniProt P08069); assay: Inhibition of IGF1R (unknown origin) assessed as residual enzyme activity at 1 uM relative to untreated control
[26] = target: Dual specificity tyrosine-phosphorylation-regulated kinase 1A (Homo sapiens) (UniProt Q13627); assay: Inhibition of DYRK1A (unknown origin) assessed as residual enzyme activity at 1 uM relative to untreated control
[27] = target: Serine/threonine-protein kinase Nek6 (Homo sapiens) (UniProt Q9HC98); assay: Inhibition of NEK6 (unknown origin) assessed as residual enzyme activity at 1 uM relative to untreated control
[28] = target: Protein kinase C alpha type (Homo sapiens) (UniProt P17252); assay: Inhibition of PKCalpha (unknown origin) assessed as residual enzyme activity at 1 uM relative to untreated control

Chain of Ribosomal protein S6 kinase beta-1 (Homo sapiens) (P23443 whole entry, looked up): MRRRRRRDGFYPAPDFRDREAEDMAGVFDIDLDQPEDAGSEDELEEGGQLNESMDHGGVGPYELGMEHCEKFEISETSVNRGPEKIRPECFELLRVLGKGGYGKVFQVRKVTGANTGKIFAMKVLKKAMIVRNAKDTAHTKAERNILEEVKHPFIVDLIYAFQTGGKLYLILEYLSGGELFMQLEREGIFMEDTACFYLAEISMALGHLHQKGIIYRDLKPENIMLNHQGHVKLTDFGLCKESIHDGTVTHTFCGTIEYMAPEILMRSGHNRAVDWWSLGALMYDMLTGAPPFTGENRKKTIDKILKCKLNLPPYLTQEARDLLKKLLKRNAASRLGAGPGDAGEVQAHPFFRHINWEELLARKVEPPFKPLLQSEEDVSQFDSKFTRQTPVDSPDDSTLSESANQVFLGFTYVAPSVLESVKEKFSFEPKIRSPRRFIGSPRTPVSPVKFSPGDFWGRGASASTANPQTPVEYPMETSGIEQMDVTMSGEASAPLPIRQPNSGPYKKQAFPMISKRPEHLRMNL
Chain of Tyrosine-protein kinase JAK2 (Homo sapiens) (O60674 whole entry): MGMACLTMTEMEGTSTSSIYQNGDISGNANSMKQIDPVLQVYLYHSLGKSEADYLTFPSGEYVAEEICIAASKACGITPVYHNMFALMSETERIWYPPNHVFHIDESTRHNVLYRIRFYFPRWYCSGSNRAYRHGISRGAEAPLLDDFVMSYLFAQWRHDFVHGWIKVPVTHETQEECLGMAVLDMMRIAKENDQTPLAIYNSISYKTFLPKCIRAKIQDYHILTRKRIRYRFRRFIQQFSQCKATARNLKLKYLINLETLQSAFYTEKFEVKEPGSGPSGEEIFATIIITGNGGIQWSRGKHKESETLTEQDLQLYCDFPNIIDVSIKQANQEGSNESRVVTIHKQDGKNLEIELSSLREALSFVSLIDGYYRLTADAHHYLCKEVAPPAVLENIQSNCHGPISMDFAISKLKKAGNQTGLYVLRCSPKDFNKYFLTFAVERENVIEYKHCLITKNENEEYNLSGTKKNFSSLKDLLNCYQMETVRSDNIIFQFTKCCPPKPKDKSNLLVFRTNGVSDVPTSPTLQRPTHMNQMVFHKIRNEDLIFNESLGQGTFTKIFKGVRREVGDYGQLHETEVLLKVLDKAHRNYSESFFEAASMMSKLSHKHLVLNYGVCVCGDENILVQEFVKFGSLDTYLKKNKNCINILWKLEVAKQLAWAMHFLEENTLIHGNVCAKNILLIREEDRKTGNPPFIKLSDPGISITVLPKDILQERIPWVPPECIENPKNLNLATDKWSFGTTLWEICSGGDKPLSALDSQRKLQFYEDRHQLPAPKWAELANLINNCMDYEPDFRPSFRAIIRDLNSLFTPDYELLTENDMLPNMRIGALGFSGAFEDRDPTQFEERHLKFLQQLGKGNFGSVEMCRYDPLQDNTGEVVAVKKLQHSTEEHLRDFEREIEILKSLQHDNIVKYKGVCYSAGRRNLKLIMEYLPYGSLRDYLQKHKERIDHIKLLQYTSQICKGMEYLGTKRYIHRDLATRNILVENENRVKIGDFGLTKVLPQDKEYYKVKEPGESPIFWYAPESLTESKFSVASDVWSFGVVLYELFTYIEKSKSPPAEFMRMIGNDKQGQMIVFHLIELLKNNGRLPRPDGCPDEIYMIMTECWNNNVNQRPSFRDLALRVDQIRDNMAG
Chain of Calcium/calmodulin-dependent protein kinase kinase 2 (Homo sapiens) (Q96RR4 2-588 limits assumed): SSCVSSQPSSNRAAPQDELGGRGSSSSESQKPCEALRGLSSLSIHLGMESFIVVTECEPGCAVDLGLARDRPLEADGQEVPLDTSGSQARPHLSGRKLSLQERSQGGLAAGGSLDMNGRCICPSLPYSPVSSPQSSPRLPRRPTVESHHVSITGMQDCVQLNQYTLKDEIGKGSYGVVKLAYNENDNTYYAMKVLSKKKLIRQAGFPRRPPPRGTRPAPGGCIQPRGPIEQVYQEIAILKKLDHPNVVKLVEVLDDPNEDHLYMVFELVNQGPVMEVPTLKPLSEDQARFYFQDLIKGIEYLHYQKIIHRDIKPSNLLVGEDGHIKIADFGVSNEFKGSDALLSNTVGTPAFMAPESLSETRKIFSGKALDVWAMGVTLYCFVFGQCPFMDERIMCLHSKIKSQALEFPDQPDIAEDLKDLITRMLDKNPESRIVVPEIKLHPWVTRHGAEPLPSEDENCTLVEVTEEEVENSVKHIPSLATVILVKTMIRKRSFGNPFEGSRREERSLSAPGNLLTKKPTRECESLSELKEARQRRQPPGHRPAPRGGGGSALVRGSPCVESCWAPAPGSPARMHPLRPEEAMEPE
Chain of Receptor tyrosine-protein kinase erbB-4 (Homo sapiens) (Q15303 whole entry): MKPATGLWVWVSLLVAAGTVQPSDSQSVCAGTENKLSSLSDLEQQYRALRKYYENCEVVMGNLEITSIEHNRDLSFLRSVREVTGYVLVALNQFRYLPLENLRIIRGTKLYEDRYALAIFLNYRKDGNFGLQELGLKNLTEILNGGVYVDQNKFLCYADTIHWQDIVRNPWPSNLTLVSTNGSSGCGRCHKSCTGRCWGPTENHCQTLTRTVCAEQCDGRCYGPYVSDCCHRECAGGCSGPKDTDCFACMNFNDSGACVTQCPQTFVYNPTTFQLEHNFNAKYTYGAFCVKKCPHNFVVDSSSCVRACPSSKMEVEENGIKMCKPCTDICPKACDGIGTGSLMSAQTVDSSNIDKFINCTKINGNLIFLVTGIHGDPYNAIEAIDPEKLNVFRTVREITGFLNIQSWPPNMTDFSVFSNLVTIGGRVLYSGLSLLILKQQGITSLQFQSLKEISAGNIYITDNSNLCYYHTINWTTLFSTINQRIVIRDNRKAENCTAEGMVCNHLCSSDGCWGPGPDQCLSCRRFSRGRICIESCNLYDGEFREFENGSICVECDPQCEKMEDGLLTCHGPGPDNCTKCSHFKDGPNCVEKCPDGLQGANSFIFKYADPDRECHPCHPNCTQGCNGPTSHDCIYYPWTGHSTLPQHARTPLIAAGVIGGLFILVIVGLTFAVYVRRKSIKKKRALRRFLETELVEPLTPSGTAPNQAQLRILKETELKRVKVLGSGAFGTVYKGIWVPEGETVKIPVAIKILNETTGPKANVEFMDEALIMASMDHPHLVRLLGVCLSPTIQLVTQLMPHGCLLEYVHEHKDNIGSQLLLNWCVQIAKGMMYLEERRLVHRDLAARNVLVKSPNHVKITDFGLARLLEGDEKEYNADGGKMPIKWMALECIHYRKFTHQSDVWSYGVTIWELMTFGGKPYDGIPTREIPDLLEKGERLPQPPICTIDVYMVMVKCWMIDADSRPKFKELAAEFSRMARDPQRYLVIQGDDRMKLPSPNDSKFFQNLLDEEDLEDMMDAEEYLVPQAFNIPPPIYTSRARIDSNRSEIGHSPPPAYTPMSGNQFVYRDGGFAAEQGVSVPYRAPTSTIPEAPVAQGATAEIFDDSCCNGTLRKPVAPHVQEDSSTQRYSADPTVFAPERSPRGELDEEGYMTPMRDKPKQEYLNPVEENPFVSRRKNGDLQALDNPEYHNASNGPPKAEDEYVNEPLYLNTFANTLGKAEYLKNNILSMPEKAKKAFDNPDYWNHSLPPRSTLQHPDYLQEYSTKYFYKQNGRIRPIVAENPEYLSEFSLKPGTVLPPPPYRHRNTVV
Chain of Eukaryotic elongation factor 2 kinase (Homo sapiens) (O00418 whole entry): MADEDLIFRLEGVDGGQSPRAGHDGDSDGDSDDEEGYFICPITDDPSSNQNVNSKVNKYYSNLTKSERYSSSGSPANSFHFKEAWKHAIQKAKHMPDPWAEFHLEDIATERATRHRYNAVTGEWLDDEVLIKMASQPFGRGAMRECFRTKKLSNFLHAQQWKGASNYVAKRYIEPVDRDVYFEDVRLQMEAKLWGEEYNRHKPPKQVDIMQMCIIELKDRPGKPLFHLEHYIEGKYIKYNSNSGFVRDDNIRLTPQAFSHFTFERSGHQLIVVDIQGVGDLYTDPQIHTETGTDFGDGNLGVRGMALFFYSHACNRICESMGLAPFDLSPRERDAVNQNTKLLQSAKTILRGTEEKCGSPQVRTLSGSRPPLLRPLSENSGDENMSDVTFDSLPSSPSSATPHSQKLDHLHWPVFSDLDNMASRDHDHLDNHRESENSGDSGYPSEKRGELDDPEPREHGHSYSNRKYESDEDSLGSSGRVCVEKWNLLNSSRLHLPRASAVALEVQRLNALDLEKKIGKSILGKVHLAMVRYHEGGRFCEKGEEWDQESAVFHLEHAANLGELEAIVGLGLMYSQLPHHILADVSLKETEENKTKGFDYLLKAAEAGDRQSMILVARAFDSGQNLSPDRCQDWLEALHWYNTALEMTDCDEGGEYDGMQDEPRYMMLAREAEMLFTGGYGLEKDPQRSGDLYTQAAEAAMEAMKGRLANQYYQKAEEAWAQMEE
Chain of SRSF protein kinase 1 (Homo sapiens) (Q96SB4 whole entry): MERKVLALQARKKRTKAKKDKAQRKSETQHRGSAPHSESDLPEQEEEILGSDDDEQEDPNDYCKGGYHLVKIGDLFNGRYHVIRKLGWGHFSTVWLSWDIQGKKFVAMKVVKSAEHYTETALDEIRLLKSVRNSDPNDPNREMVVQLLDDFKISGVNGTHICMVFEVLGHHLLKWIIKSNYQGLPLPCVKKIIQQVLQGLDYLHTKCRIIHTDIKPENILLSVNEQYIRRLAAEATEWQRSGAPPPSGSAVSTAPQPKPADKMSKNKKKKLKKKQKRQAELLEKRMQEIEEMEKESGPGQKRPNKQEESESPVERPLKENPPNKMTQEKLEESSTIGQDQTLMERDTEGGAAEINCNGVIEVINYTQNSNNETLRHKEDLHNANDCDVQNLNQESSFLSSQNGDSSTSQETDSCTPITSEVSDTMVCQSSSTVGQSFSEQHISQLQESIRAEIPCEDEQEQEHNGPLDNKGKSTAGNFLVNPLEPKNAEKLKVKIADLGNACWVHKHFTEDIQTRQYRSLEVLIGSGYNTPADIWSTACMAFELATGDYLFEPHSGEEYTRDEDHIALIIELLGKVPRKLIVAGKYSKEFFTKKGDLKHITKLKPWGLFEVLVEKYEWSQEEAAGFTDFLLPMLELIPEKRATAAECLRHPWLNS

Structure (SMILES): Cc1cccc(-c2nn3c(c2-c2ccc(O)cc2)C(C)C(C)(C)C3)n1 (stereo not given)
- Activity [1]: > 80%
- Activity [2]: > 80%
- inhibition [3]: Active
- Activity [4]: > 80%
- Activity [5]: 60 to 80%
- Activity [6]: > 80%
- Activity [7]: > 80%
- Activity (Homo sapiens): 60 to 80%
- Activity [8]: > 80%
- Activity [9]: > 80%
- Activity [10]: 60 to 80%
- Activity [11]: > 80%
- Activity [12]: > 80%
- Activity [13]: > 80%
- Activity [14]: > 80%
- IC50 (K562): > 100 µM
- Activity [15]: > 80%
- Activity [16]: > 80%
- Activity [17]: 60 to 80%
- Activity [18]: > 80%
- Activity [19]: > 80%
- Activity [20]: > 80%
- Activity [21]: > 80%
- Activity [22]: > 80%
- Activity [23]: > 80%
- Activity [24]: > 80%
- Activity [25]: > 80%
- Activity [26]: > 80%
- Activity [27]: > 80%
- Activity [28]: > 80%
